The test system of one test is spleen cells. Briefly: Cytokine levels in culture supernatants of spleen cells from MCMV-infected mice (ELISA). Format: in vivo. From the text: Arrow indicates an inducible band. Lane 1, uninfected cells; lane 2, MCMV-infected; lane 3, Thymosin alpha 1 treated; lane 4, MCMV+Thymosin alpha 1 treated. (FIG. 3b) Cytokine production (pg/ml) by DC subsets treated as above. Bars indicate the standard errors. *P<0.05, cytokine production in MCMV-infected DC vs uninfected DC. **P<0.05, Thymosin alpha 1-treated vs untreated DC. (FIG. 3c) Cytokine production in mice during MCMV infection. Cytokine levels (pg/ml) in culture supernatants of spleen cells from mice with MCMV infection and treated for a week with Thymosin alpha 1 or GCV. *P<0.05, treated vs untreated mice. ND, not done.
Viral load (FIG. 4a) and cytokine production (FIG. 4b) in C57BL6, TLR4−/−, TLR9−/− and MyD88−/− mice infected with 5×10^5 PFU of MCMV and treated with 200 μg/kg Tα1 for a week. Virus titers, expressed as log 10, were quantified on MEF cells by standard plaque assay on infected tissues removed a week after infection and treatment. Cytokine (pg/ml) levels in culture supernatants of spleen cells were determined by ELISA assay. Bars indicate the standard errors. *P<0.05, Tα1-treated vs untreated mice. Results are representative of 3 independent experiments.
BALB/c or C57BL6 mice were infected with 10^5 or 5×10^5 PFU of MCMV, respectively. Virus titers, expressed as log 10, were quantified on MEF cells by standard plaque assay on lung tissues removed 7 days after the infection. Tα1 (200 μg/kg/daily for a week) and/or GCV (40 mg/kg, three times a week) were administered beginning the day of the infection. Cytokine (pg/ml) levels in culture supernatants of spleen cells (7 days) were determined by ELISA assay. Bars indicate the standard errors. *P<0.05, treated vs untreated mice. Results are representative of 3 independent experiments.
Quantification of cytokines by ELISA and ELISPOT assays. The levels of cytokines in the culture supernatants of mitogen-stimulated spleen cells (48 h stimulation with 10 μg/ml ConA) or MCMV-pulsed DC (24 h) were determined by ELISA (R&D Systems and PBL, Biomedical Lab, Milan, Italy). The detection limits (pg/ml) of the assays were <16 for IL-12 p70, <10 for IFN-., <3 for IL-10 and <10 for IFN-a. IFN-.-producing NK cells were enumerated by ELISPOT assay on purified NK (Virus Res. 2003; 98:17-467 25). Results are expressed as the mean number of cytokine-producing cells (±SE) per 10^5 cells, calculated using replicates of serial 2-fold dilutions of cells.

In another test the test system is MCMV. As to the kind of experiment: MCMV viral load in TLR-deficient mice (plaque assay). The conditions noted are these: 200 μg/kg for a week. In kind it is in vivo, C57BL6, TLR4-/-, TLR9-/- and MyD88-/- mice. The procedure:
Viral load (FIG. 4a) and cytokine production (FIG. 4b) in C57BL6, TLR4−/−, TLR9−/− and MyD88−/− mice infected with 5×10^5 PFU of MCMV and treated with 200 μg/kg Tα1 for a week. Virus titers, expressed as log 10, were quantified on MEF cells by standard plaque assay on infected tissues removed a week after infection and treatment. Cytokine (pg/ml) levels in culture supernatants of spleen cells were determined by ELISA assay. Bars indicate the standard errors. *P<0.05, Tα1-treated vs untreated mice. Results are representative of 3 independent experiments. Mice. Wild-type (WT) inbred C57BL6 and BALB/c mice, 8 to 12 weeks old, were purchased from Charles River Breeding Laboratories (Calco, Italy). Pairs of homozygous TLR9-(TLR9−/−), TLR4-(TLR4−/−), and MyD88-(MyD88−/−)-deficient mice (on the C57BL6 background), were bred under specific pathogen-free conditions at the breeding facilities of the University of Perugia, Perugia, Italy. Experiments were performed following protocols approved by the institutional animal committee and in accordance with European Economic Community Council Directive as well as institutional animal care and use guidelines. Plaque assay. Plaque assay was determined on cells grown to subconfluence and incubated with serially diluted virus samples for 2 h at 37° C. (10). All organs from uninfected animals were negative viruses. Virus titers are expressed as log 10 (mean±standard errors, SE).

For test [1], the system named is human non-small cell lung cancer ("NSCLC") cells. Particulars: subcutaneous administration; cited from earlier work.
[2] abbreviates: BALB/c mice with MCMV infection, particularly in the first weeks.

Ends that are not written are not given here.

In the case of “Ac-Ser-Asp-Ala-Ala-Val-Asp-Thr-Ser-Ser-Glu -Ile-Thr-Thr-Lys-Asp-Leu-Lys-Glu-Lys-Lys-Glu-Val-Glu-Glu-Ala-Glu-Asn-O (Ac-SDAAVDTSSEITTKDLKEKKEVEEAEN) [Thymosin alpha 1, acidic peptide present in thymus extract with immunoregulatory properties]”, the IL-10 production result with spleen cells (BALB/c mice with MCMV infection) is “dramatically increased”. In the test on spleen cells (setting [2]), the IFN-. production entry is “significantly increased”. For the same substance, the IFN-a production result with spleen cells (setting [2]) is “significantly increased”. For the same substance, the IL-12p70 production entry in the test with spleen cells (BALB/c mice with MCMV infection, soon after treatment, declining thereafter) was “slightly increased”. Moreover, in the test on spleen cells (C57BL6 and TLR4-/- mice, 200 μg/kg for a week), the “levels of IFN-α, IL-12p70 and IFN-. in supernatants of splenocytes” value is reported as “significantly increased”. The “antiviral effect (viral load)” value with MCMV (C57BL6 mice) is given as “effective”; with MCMV (MyD88-/- mice) it was “completely ineffective”; with MCMV (TLR4-/- mice), “effective”; with MCMV (TLR9-/- mice), “completely ineffective”. Further, the tumor volume entry in test [1] is given as “significantly decreased tumor volume”.

The record behind these values is patent publication US8337828B2, “Use of thymosin alpha 1, alone or in combination with PTX3 or ganciclovir, for the treatment of cytomegalovirus infection” (priority 2006, dated 2012).
